Measured values as given in article PMC6704710, “Preclinical evaluation of 3D185, a novel potent inhibitor of FGFR1/2/3 and CSF-1R, in FGFR-dependent and macrophage-dominant cancer models” (Journal of Experimental & Clinical Cancer Research : CR, 2019).

Tests used:
ErbB4(h) = target: T1, ErbB4(h) (Homo sapiens, UniProt Q15303); assay: Eurofins kinase panel; assay type: biochemical; details: read-out: Inhibition rate (%)
T1 construct: purchased Eurofins (KinaseProfiler)

FGFR2 = target: T2, FGFR2 (Homo sapiens, UniProt P21802); assay: Kinase inhibition assay (ELISA); assay type: biochemical; details: mean ± SD
T2 construct: purchased Eurofins (Fremont, United States)

BMDM (CSF-2) = assay: Macrophage survival (CCK-8); assay type: cell-based, murine; details: Mus musculus, BMDM, 168 h; 7 days
Method: Murine bone marrow-derived macrophages (BMDMs) and PBMCs were used for cell viability studies. BMDMs were harvested by flushing the tibias and femurs of 6- to 8-week-old C57BL/6 mice and depleting red blood cells (RBCs) by RBC lysis (Biogems). For BMDM survival, the cells were cultured for 7 days in RPMI 1640 containing 10% fetal bovine serum (FBS), 100 U/mL penicillin, 100 μg/mL streptomycin and 100 ng/mL mouse CSF-1 (or CSF-2) with or without the tested compounds. PBMCs were obtained from HemaCare and cultured for 7 days in RPMI 1640 containing 10% fetal bovine serum (FBS), 100 U/mL penicillin, 100 μg/mL streptomycin and 100 ng/mL human CSF-1 (or CSF-2) with or without the tested compounds. Cell viability was measured using the CCK-8 assay. For IL-4/IL-13-induced macrophage survival analysis, viable cells were counted by trypan blue exclusion.

GSK3α(h) = target: T3, GSK3α(h) (Homo sapiens, UniProt P49840); assay: Eurofins kinase panel; assay type: biochemical; details: read-out: Inhibition rate (%)
T3 construct: purchased Eurofins (KinaseProfiler)

Aurora-A(h) = target: T4, Aurora-A(h) (Homo sapiens, UniProt O14965); assay: Eurofins kinase panel; assay type: biochemical; details: read-out: Inhibition rate (%)
T4 construct: purchased Eurofins (KinaseProfiler)
T4 sequence (O14965 1-403): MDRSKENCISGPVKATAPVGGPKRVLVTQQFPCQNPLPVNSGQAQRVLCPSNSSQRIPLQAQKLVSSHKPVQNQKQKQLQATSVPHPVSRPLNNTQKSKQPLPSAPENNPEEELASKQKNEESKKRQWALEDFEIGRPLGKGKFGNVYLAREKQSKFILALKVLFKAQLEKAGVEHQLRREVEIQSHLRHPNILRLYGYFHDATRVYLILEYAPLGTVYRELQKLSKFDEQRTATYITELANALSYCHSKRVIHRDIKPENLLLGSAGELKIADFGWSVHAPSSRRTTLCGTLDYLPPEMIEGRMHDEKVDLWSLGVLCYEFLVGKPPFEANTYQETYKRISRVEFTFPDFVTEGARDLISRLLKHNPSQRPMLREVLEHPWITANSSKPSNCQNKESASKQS

ICK(h) = target: T5, ICK(h) (Homo sapiens, UniProt Q9UPZ9); assay: Eurofins kinase panel; assay type: biochemical; details: read-out: Inhibition rate (%)
T5 construct: purchased Eurofins (KinaseProfiler)
T5 sequence (Q9UPZ9 1-632): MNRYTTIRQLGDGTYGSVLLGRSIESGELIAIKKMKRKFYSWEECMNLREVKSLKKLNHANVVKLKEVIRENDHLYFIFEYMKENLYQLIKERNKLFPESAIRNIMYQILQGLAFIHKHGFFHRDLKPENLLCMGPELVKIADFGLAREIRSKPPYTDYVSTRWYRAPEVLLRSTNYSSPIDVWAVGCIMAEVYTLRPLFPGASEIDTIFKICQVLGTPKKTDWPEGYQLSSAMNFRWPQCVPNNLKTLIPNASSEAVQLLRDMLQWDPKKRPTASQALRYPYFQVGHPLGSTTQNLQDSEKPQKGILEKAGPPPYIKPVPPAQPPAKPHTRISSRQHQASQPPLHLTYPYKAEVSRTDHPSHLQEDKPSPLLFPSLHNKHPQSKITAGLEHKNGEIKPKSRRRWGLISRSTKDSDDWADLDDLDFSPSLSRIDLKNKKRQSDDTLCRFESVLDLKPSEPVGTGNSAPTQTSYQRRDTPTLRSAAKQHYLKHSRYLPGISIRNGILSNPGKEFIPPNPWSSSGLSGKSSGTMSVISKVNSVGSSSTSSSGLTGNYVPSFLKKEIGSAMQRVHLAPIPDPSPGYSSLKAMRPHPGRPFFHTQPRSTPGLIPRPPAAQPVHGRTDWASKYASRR

[1] = test system: 372 human recombinant kinases; assay: Eurofins kinase panel, overall selectivity; assay type: biochemical
Method: Active FGFR1–4, VEGFR1, KDR, VEGFR3, PDGFRα and PDGFRβ proteins were purchased from Eurofins (Fremont, United States), and kinase activity was assessed using ELISA, as previously reported. The broader kinase selectivity profile of 3D185 (0.01, 0.1, and 1 μM) was determined by Eurofins by screening the compound against 372 human recombinant kinases. Increasing concentrations of ATP were diluted for the kinase reaction in the ATP competition assay. CSF-1R kinase activity was analyzed using the Z’-LYTE™ Kinase Assay Kit (Thermo Fisher, United States). The assay formats are described in the SelectScreen Kinase Profiling Service Zlyte protocol. IC50 values were calculated by dose-response curve fitting using Prism (Graph Pad).

[2] = test system: MC38 colorectal adenocarcinoma model; assay: In vivo antitumor activity, MC38 model; set-up: species or system C57BL/6 mice; details: oral once daily 23 days
Method: For the MC38 xenograft model, 6-week-old C57BL/6 mice were housed and maintained under specific pathogen-free conditions. Tumor cells (2 × 10^6 in 200 μL) were injected subcutaneously (s.c.) into the right flanks of C57BL/6 mice. […] The tumors were measured twice per week using a microcaliper. Tumor volume (TV) was calculated as follows: TV = (length × width^2)/2. In addition, the individual relative tumor volume (RTV) was calculated as follows: RTV = Vt / V0, where Vt is the volume on a particular day and V0 is the volume at the beginning of the treatment. The RTV is shown on the indicated days as the […] ± SEM for the indicated groups of mice.

T1 sequence (Q15303 26-1308): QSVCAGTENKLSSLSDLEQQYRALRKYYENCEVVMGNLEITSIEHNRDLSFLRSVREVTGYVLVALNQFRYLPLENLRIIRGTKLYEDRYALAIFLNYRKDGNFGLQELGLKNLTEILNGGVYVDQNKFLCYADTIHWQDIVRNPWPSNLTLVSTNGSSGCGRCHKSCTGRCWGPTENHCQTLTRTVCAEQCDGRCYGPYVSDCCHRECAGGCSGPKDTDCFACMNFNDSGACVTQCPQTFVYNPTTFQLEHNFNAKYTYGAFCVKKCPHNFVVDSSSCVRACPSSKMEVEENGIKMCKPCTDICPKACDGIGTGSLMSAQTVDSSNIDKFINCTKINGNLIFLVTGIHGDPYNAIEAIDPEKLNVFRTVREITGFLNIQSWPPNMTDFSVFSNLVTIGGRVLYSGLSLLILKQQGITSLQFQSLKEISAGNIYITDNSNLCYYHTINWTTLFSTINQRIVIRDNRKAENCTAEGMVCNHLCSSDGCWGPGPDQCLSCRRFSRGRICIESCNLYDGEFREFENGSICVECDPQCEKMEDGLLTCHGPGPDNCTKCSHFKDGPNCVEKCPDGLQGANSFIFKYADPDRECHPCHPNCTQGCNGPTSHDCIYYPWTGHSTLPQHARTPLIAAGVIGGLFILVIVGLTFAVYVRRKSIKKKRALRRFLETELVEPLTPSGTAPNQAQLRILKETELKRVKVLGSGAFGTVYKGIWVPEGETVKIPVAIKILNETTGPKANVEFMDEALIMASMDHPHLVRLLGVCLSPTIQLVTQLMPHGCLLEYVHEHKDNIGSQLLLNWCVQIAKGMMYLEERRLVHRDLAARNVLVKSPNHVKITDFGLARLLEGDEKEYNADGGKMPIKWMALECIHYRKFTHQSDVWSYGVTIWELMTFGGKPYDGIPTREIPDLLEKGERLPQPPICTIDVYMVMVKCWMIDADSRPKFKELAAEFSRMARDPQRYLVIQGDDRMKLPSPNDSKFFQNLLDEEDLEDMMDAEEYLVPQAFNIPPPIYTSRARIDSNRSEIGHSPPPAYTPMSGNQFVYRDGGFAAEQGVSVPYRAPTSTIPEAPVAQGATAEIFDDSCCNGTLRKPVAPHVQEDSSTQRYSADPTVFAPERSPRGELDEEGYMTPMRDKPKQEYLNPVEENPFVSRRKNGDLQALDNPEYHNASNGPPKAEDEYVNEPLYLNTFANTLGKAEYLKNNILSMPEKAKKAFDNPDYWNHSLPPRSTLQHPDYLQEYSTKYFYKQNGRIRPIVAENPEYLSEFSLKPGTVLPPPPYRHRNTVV
T3 sequence (P49840 whole entry): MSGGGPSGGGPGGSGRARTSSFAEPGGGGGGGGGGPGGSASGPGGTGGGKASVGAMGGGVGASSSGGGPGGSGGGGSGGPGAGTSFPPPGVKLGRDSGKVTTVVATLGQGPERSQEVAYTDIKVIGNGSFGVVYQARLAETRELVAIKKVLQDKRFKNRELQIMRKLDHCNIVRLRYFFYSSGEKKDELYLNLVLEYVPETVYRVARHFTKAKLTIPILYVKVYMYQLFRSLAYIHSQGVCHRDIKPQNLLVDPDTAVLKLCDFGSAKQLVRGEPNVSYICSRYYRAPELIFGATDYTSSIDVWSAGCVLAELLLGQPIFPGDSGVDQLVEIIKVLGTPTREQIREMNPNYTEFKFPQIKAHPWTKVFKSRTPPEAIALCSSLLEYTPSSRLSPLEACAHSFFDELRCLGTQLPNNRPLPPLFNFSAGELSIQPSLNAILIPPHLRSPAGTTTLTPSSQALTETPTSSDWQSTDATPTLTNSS
T2 sequence (P21802 22-821): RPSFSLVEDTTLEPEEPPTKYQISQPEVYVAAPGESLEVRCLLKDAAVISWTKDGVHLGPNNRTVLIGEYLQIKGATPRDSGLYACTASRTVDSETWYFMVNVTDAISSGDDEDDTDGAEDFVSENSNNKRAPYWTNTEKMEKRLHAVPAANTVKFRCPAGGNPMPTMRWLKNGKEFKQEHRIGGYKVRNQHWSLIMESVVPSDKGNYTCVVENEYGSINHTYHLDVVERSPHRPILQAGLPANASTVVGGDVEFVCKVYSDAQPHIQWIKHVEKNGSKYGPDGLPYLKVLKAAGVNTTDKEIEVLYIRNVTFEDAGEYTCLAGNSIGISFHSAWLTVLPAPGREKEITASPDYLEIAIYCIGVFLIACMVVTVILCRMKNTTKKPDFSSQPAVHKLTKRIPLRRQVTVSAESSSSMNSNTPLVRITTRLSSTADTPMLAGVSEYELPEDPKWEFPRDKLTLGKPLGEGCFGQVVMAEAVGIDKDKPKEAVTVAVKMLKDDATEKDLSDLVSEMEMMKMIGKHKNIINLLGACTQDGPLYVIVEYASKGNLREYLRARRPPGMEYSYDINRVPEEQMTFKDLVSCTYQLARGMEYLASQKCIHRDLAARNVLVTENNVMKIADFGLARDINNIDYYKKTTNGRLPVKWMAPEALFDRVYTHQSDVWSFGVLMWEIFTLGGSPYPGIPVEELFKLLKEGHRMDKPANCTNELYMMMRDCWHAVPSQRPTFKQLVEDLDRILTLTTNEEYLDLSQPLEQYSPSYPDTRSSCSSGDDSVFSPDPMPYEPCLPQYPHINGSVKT

## COc1cc(OC)c(Cl)c(-c2ccc3c(NC(=O)c4ccc(N5CCNC(C)(C)C5)cc4)n[nH]c3n2)c1Cl [3D185]
ErbB4(h); 10 nM
  inhibition at 0.01 µM: -2%
ErbB4(h); 100 nM
  inhibition at 0.1 µM: -1%
ErbB4(h); 1000 nM
  inhibition at 1 µM: 28%
FGFR2
  IC50: 1.3 nM
BMDM (CSF-2)
  IC50: > 1000 nM
GSK3α(h); 10 nM
  inhibition at 0.01 µM: 10%
GSK3α(h); 100 nM
  inhibition at 0.1 µM: 4%
GSK3α(h); 1000 nM
  inhibition at 1 µM: -5%
Aurora-A(h); 10 nM
  inhibition at 0.01 µM: 4%
Aurora-A(h); 100 nM
  inhibition at 0.1 µM: 5%
Aurora-A(h); 1000 nM
  inhibition at 1 µM: 3%
ICK(h); 10 nM
  inhibition at 0.01 µM: -10%
ICK(h); 100 nM
  inhibition at 0.1 µM: -5%
ICK(h); 1000 nM
  inhibition at 1 µM: 4%
[1]; 17 kinases
  selectivity for FGFR1 over other kinases: > 20 fold
[1]; 349 kinases
  selectivity for FGFR1 over other kinases: greater than 200 fold
[2]
  effect on MC38 tumor growth: delayed tumor growth
